{
  "source": "patent US10201585B2",
  "about": "“Methods for treatment of atherosclerosis” (Stealth Peptides International, Inc., priority 2012, dated 2019)",
  "key": {"[1]": {"test_system": "Apoprotein E deficient mice", "assay": "Plasma lipid analysis using an autoanalyzer (TC, Trigs, PL, FC, CE by calculation)", "format": "in vivo", "design": "Plasma Trigs (triglycerides) / Trigs (plasma triglycerides): unit not given beside the values", "source_text": "(§1) Apoprotein E deficient mice (Jackson Laboratories, 600 Main Street, Bar Harbor, Me.) were used in this study. The mice were male, 7-8 weeks of age, and between 18-20 g in weight. An initial total cholesterol measurement was made on 30 mice, and the mice were grouped into two groups of 15 to match the total cholesterol measurements. Both groups were fed a “western diet” (40 kcal % butterfat, 0.15% [wt/wt] cholesterol, Harlan Teklad diet TD-88137). Starting at t=0, the control group of 15 mice received vehicle only (phosphate buffered saline at pH 7.4), while the test group of 15 mice received aromatic-cationic peptide reconstituted in phosphate buffered saline. Body weights of the mice were recorded weekly, and mortality checks were performed daily.\n(§2) The aromatic-cationic peptide D-Arg-2′6′-Dmt-Lys-Phe-NH2 (sterile lyophilized powder, reconstituted in phosphate buffered saline) was tested. For the 12-week study, test mice received a single, daily dose of the peptide, subcutaneously at 1 mg/kg. Control mice received a single daily dose of vehicle.\nBlood was collected every four weeks (orbital plexis) under isoflurane anesthesia (3%) and blood lipids were determined. Plasma lipid analysis was conducted for both groups at t=0, 4, 6, 8, and 12 weeks. Plasma lipid analysis using an autoanalyzer included total cholesterol (TC), triglycerides (Trigs), phospholipids (PL), free cholesterol (FC), and cholesterol ester (CE, by calculation). Gel electrophoresis was used to measure levels of high-density lipoprotein cholesterol (HDL-C), low-density lipoprotein cholesterol (LDL-C), and very low-density lipoprotein cholesterol (VLDL-C)."}, "fibroblast cells": {"test_system": "fibroblast cells", "assay": "Coenzyme Q10 levels in fibroblasts treated with peptide", "format": "cell-based", "conditions": "10 nM peptide for 16-24 hours or 5 days, DMEM, versus saline treated (FIG. 5)", "description": "Fibroblasts were treated with an aromatic-cationic peptide of the present disclosure, and levels of coenzyme Q10 were evaluated.\nFibroblasts were culture by methods known in the art, and treated with the aromatic-cationic peptide D-Arg-2′6′-Dmt-Lys-Phe-NH2 as shown in Table 11 below. Data represents the average n=3-6.\nCoenzyme Q10 levels were evaluated by methods known in the art."}, "[2]": {"test_system": "Apoprotein E deficient mice", "assay": "Thoracic aorta lipids (Bligh-Dyer extraction, WAKO kits; TC, FC, CE per mg protein)", "format": "in vivo", "source_text": "as §1, §2\n(§3) Following the 12 week treatment, mice were euthanized within 48 hours after the last dose by CO2 asphyxiation and the vascular tree was perfused with 5 mL of phosphate buffered saline (pH 7.4). The aorta and aortic sinus were removed for examination. Thoracic aorta were isolated, trimmed of fat, and fixed in formalin for 48-72 hours before analysis. For en face analysis, aortas were laid out and pinned on black matrix for photography, and stained with Sudan IV. Vessels were imaged for surface involvement using a Nikon computerized image analysis system and the percent of the aortic surface area covered by lipid was calculated. Two determinations were done for each image (Quan 1 and Quan 2), and the average was computed. The data were then computed by group and statistically analyzed. Following staining and morphometric analysis, total lipids were extracted from the aortas using the Bligh-Dyer method. WAKO Diagnostics kits (WAKO Diagnostics, Inc., 1600 Bellwood Road Richmond, Va. 23237-1326) were then used to evaluate total cholesterol, free cholesterol, and cholesterol ester. Cholesterol levels were quantitate nad expressed relative to protein levels. Values are expressed as μg lipid per mg protein (see e.g., FIG. 1)."}, "[3]": {"test_system": "Apoprotein E deficient mice", "assay": "En face analysis of atherosclerotic lesions, thoracic aorta (Sudan IV, % of aortic surface covered by lipid)", "format": "in vivo", "conditions": "12 weeks", "source_text": "as §1, §2, §3"}, "[4]": {"conditions": "Week 4, individual test mice (sample # 16-30), listed as aromatic-cationic peptide"}, "[5]": {"conditions": "Week 8, individual test mice (sample # 16-30), listed as aromatic-cationic peptide"}, "[6]": {"conditions": "Week 12, AVE of test mice 16-30"}, "[7]": {"conditions": "Week 12, individual test mice (sample # 16-30), listed as aromatic-cationic peptide"}, "[8]": {"conditions": "treated versus vehicle at 4, 8 and 12 week time points"}, "[9]": {"conditions": "treated versus vehicle, 12 weeks (Table 8, FIG. 2)"}, "[10]": {"conditions": "μg lipid per mg protein, peptide 1 mg/kg s.c. daily, 12 weeks, individual mouse (sample 16-30)"}, "[11]": {"conditions": "ApoE deficient mice, western diet, peptide 1 mg/kg s.c. daily, individual mouse (sample 16-30)"}},
  "note": "“And” between values parts separate entries of the source, which are not always exact repeats. Equal values may be shown once. “Also recorded” adds a separate entry of the source.",
  "data": [
    {"substance": "D-Arg-2′6′-Dmt-Lys-Phe-NH2", "values": [
      {"measurement": "PL (plasma phospholipid)", "setting": "[1]; [4]", "result": "422 and 482 and 452 and 560 and 526 and 320 and 506 and 556 and 446 and 416 and 516 and 580 and 510 and 666 and 750"},
      {"measurement": "TC (plasma total cholesterol)", "setting": "[1]; [4]", "result": "799 and 924 and 976 and 1139 and 1038 and 673 and 940 and 1046 and 835 and 822 and 1026 and 1223 and 935 and 1248 and 1337"},
      {"measurement": "Trigs (plasma triglycerides)", "setting": "[1]; [4]", "result": "18 (2×) and 39 and 28 and 85 and 59 (2×) and 46 and 108 and 33 and 44 (2×) and 67 and 80 and 144"},
      {"measurement": "CE (plasma cholesterol ester)", "setting": "[1]; Week 8, AVE of test mice 16-30", "result": 932},
      {"measurement": "FC (plasma free cholesterol)", "setting": "[1]; Week 8, AVE of test mice 16-30", "result": 350},
      {"measurement": "PL (plasma phospholipid)", "setting": "[1]; Week 8, AVE of test mice 16-30", "result": 493},
      {"measurement": "TC (plasma total cholesterol)", "setting": "[1]; Week 8, AVE of test mice 16-30", "result": 1282},
      {"measurement": "Trigs (plasma triglycerides)", "setting": "[1]; Week 8, AVE of test mice 16-30", "result": 57},
      {"measurement": "CE (plasma cholesterol ester)", "setting": "[1]; [5]", "result": "940 and 710 and 1119 and 865 and 1153 and 653 and 714 and 1085 and 715 and 670 and 1073 and 1048 and 839 and 1130 and 1267"},
      {"measurement": "FC (plasma free cholesterol)", "setting": "[1]; [5]", "result": "322 and 294 (2×) and 386 and 318 and 392 and 290 and 388 and 308 (2×) and 286 and 362 and 366 and 404 and 530"},
      {"measurement": "PL (plasma phospholipid)", "setting": "[1]; [5]", "result": "416 and 456 and 474 and 448 and 516 (2×) and 424 and 480 and 488 and 436 and 440 and 556 and 470 and 540 and 728"},
      {"measurement": "TC (plasma total cholesterol)", "setting": "[1]; [5]", "result": "1262 and 1004 and 1505 and 1183 and 1545 and 943 and 1008 and 1473 and 1023 and 956 and 1435 and 1414 and 1147 and 1534 and 1797"},
      {"measurement": "Trigs (plasma triglycerides)", "setting": "[1]; [5]", "result": "34 (3×) and 31 (2×) and 51 (2×) and 48 and 53 and 43 and 75 and 63 and 39 and 67 and 195"},
      {"measurement": "CE (plasma cholesterol ester)", "setting": "[1]; [6]", "result": 681},
      {"measurement": "FC (plasma free cholesterol)", "setting": "[1]; [6]", "result": 322},
      {"measurement": "PL (plasma phospholipid)", "setting": "[1]; [6]", "result": 434},
      {"measurement": "TC (plasma total cholesterol)", "setting": "[1]; [6]", "result": 1003},
      {"measurement": "Trigs (plasma triglycerides)", "setting": "[1]; [6]", "result": 55},
      {"measurement": "CE (plasma cholesterol ester)", "setting": "[1]; [7]", "result": "607 and 335 and 597 and 640 and 1002 and 477 and 445 and 476 and 675 and 687 and 960 and 869 and 339 and 904 and 1201"},
      {"measurement": "FC (plasma free cholesterol)", "setting": "[1]; [7]", "result": "291 and 205 and 287 and 296 and 418 and 242 and 229 and 269 and 315 and 312 and 419 and 386 and 219 and 413 and 535"},
      {"measurement": "PL (plasma phospholipid)", "setting": "[1]; [7]", "result": "366 and 318 and 320 and 432 and 491 and 321 and 363 and 394 and 374 and 423 and 536 and 521 and 340 and 575 and 741"},
      {"measurement": "TC (plasma total cholesterol)", "setting": "[1]; [7]", "result": "898 and 540 and 884 and 937 and 1420 and 719 and 674 and 745 and 990 and 999 and 1379 and 1255 and 558 and 1317 and 1736"},
      {"measurement": "Trigs (plasma triglycerides)", "setting": "[1]; [7]", "result": "27 and 49 and 10 and 37 (2×) and 18 and 39 (2×) and 13 and 25 and 74 and 89 and 97 and 112 and 158"},
      {"measurement": "Plasma cholesterol ester, in words", "setting": "[1]; [8]", "result": "reduces"},
      {"measurement": "Plasma free cholesterol, in words", "setting": "[1]; [8]", "result": "reduces"},
      {"measurement": "Plasma phospholipid levels, in words", "setting": "[1]; [8]", "result": "reduces"},
      {"measurement": "Plasma total cholesterol, in words", "setting": "[1]; [8]", "result": "reduces"},
      {"measurement": "Plasma triglycerides, in words", "setting": "[1]; [8]", "result": "reduces"},
      {"measurement": "Coenzyme Q10 levels in fibroblast cells", "setting": "fibroblast cells", "result": "increased"},
      {"measurement": "Thoracic aorta FC (free cholesterol), AVE", "setting": "[2]; group mean of 15 test mice, 12 weeks, vehicle group 7.5", "result": 5.7, "unit": "µg/mg"},
      {"measurement": "Thoracic aorta CE (cholesterol ester), AVE", "setting": "[2]; group mean of 15 test mice, 12 weeks, vehicle group 22.6", "result": 14.6, "unit": "µg/mg"},
      {"measurement": "Thoracic aorta TC (total cholesterol), AVE", "setting": "[2]; group mean of 15 test mice, 12 weeks, vehicle group 30.1", "result": 20.4, "unit": "µg/mg"},
      {"measurement": "Cholesterol esters in the thoracic aorta, in words", "setting": "[2]; [9]", "result": "lower"},
      {"measurement": "Free cholesterol in the thoracic aorta, in words", "setting": "[2]; [9]", "result": "lower"},
      {"measurement": "Total cholesterol in the thoracic aorta, in words", "setting": "[2]; [9]", "result": "lower"},
      {"measurement": "Thoracic aorta CE (cholesterol ester)", "setting": "[2]; [10]", "result": "13.8 μg/mg and 2.7 μg/mg and 30.3 μg/mg and 14.7 μg/mg and 30.7 μg/mg and 14.1 μg/mg and 4.6 μg/mg (2×) and 5.6 μg/mg (2×) and 28.5 μg/mg and 21.3 μg/mg and 18.6 μg/mg and 11.4 μg/mg and 13.0 μg/mg"},
      {"measurement": "Thoracic aorta FC (free cholesterol)", "setting": "[2]; [10]", "result": "7.6 μg/mg (2×) and 4.0 μg/mg and 5.1 μg/mg and 3.0 μg/mg (2×) and 8.1 μg/mg and 2.7 μg/mg and 3.5 μg/mg and 14.6 μg/mg and 6.6 μg/mg and 3.8 μg/mg and 3.6 μg/mg and 3.3 μg/mg and 9.5 μg/mg"},
      {"measurement": "Thoracic aorta TC (total cholesterol)", "setting": "[2]; [10]", "result": "21.4 µg/mg and 6.7 µg/mg and 35.4 µg/mg and 17.7 µg/mg and 38.8 µg/mg and 16.8 µg/mg and 8.1 µg/mg and 20.1 µg/mg and 35.1 µg/mg and 9.4 µg/mg and 24.9 µg/mg and 21.7 µg/mg and 7.9 µg/mg and 19.0 µg/mg and 22.5 µg/mg"},
      {"measurement": "Ave. % of Lesion (average of Quan 1 and Quan 2)", "setting": "[3]; [11]", "result": "2.615% and 0.892% and 9.027% and 3.019% and 7.009% and 4.833% and 1.996% and 1.205% and 9.948% and 2.763% and 6.814% and 4.734% and 0.834% and 11.239% and 12.990%"},
      {"measurement": "Quan 1 (first determination of % of the aortic surface covered by lipid)", "setting": "[3]; [11]", "result": "10.000% and 4.700%"},
      {"measurement": "Quan 2 (second determination of % of the aortic surface covered by lipid)", "setting": "[3]; [11]", "result": 0.870, "unit": "%"},
      {"measurement": "Ave (average % of the surface of the aortas showing lesions, group)", "setting": "[3]; group mean of 15 test mice, peptide 1 mg/kg s.c. daily, vehicle group 7.189", "result": 5.328, "unit": "%"},
      {"measurement": "Atherosclerotic lesions in the aorta (% lesion area), in words", "setting": "[3]; treated versus vehicle, 1 mg/kg s.c. daily (Table 7, FIG. 1A), 1 mg/kg", "result": "reduces; also recorded: lower"}
    ]}
  ]
}
